Reference: ChEMBL document CHEMBL5113502, “Accommodation of ring C expanded deoxyvasicinone in the HDAC inhibitory pharmacophore culminates into a tractable anti-lung cancer agent and pH-responsive nanocarrier” (Eur J Med Chem, 2022)
Calls of active or inactive are those of the source. No cut-off for these calls is given here.

System: A549
Experiment: Induction of cell cycle arrest in human A549 cells assessed as accumulation at SubG1 phase at IC50 after 48 hrs by flow cytometry
Type: functional, cell-based

## O=C(/C=C/c1ccc(CNc2ccc3nc4n(c(=O)c3c2)CCCCC4)cc1)NO
  Activity: Active
